Results on two compounds are retold here after PMC10673369, “Preliminary SAR of Novel Pleuromutilin–Polyamine Conjugates” (Microorganisms, 2023).

In experiment [1] the test system is S. aureus ATCC 25923. The experiment is described as follows: Real-time growth inhibition curves, S. aureus. The following applies: optical density during 18 h culturing. The class given is cell-based. How it is done: Real-time growth curves were determined using reported protocols (see Supplementary File).
Further investigation is required to determine the factors leading to the differences observed in the sub-MIC growth curves for the two compounds.
(§1) Briefly, restoring enhancer concentrations were determined with an inoculum of 5x10^5 CFU in 200 µL of MHB containing two-fold serial dilutions of each derivative in the presence of doxycycline at 4.5 […]
(§2) The lowest concentration of the polyamine
(§3) These measurements were independently repeated in triplicate.
(§4) Outer membrane permeabilization was measured using nitrocefin as a chromogenic substrate of periplasmic β-lactamase. […] Nitrocefin hydrolysis was monitored spectrophotometrically by measuring the increase in absorbance at 490 nm. […]
(§5) HEK293 cells were counted manually in a Neubauer hemocytometer and plated at a density of 5,000 cells/well into each well of the 384-well plates containing the 25x (2 µL) concentrated compounds [26,27]. […]
(§6) To measure cytotoxicity, 5 µL (equals 100 µM final) of resazurin was added to each well after incubation and incubated for further 3 h at 37 °C with 5% CO2. After the final incubation, fluorescence intensity […]
reader. […] The concentration-dependent percentage cytotoxicity was fitted to a dose–response function (using Pipeline Pilot) and CC50 values were determined. […]

In experiment [2] the test system is S. aureus ATCC 25923. The experiment is described as follows: ATP efflux assay, S. aureus. The following applies: compound at 100 µg/mL. The class given is cell-based, Staphylococcus aureus. How it is done:
(§7) ATP efflux assays were conducted using reported protocols (see Supplementary File).
(§8) The mechanism of antibiotic action of 9e towards the Gram-positive bacterium Staphylococcus aureus was attributed to its ability to disrupt the bacterial membrane and cause the release of intracellular ATP. The test organisms, being S. aureus ATCC 25923 and MRSA, were briefly exposed to 9e at a single dose of 100 µg/mL, with the leakage of ATP determined by the use of a bioluminescence assay (Figure 4). […] Nevertheless, a 40% level of ATP release is detrimental to the survival of the bacteria. After 3 min, it will be clear that the bacteria will be killed.
(§9) 2.9 ATP efflux measurement
(§10) A solution of the compound was prepared in twice-distilled water at a fixed concentration of 100 µg/mL. The different Gram-positive suspensions were prepared in MH II broth and were incubated at 37 °C. […] Subsequently, 50 µL of Luceferin–Luceferase reagent (Yelen, France) was added to the mixture, and the luminescent signal was quantified with an Infinite M200 microplate reader (Tecan, Männedorf, Switzerland) for five seconds. ATP concentration was quantified by internal sample addition. Squalamine (100 µg/mL) was used as a positive control to quantify the maximum level of ATP efflux and water as the negative control. […]

In experiment [3] the test system is MRSA. The experiment is described as follows: ATP efflux assay, MRSA. The settings on record: compound at 100 µg/mL. The class given is cell-based, methicillin-resistant S. aureus. How it is done: as §7, §8, §9, §10
Experiment [4] concerns P. aeruginosa PAO1. The experiment is described as follows: Nitrocefin hydrolysis assay (outer membrane permeabilization). The class given is cell-based. The following applies: polymyxin B at 98.3 μM ([…]). The protocol:
Nitrocefin assays were conducted using reported protocols (see Supplementary File).
We also examined the ability of 9e to act as membrane disruptor of the Gram-negative bacteria P. aeruginosa PAO1 (Figure 5), using a nitrocefin colorimetric assay. This assay makes use of a chromogenic cephalosporin derivative, which in the presence of an outer membrane disruptor gains entry to the periplasm, where upon the action of β-lactamases leads to substrate hydrolysis with a detectable color change from yellow to red.
as §1, §2, §3, §4, §5, §6
reader. […] The concentration-dependent percentage cytotoxicity was fitted to a dose–response function (using Pipeline Pilot) and CC50 values were determined.
Human whole blood was washed three times with three volumes of 0.9% NaCl and then resuspended in the same solution to a concentration of 0.5 x 10^8 cells/mL, as determined by the manual cell count in a Neubauer hemocytometer. […] Hemolysis was determined by measuring the supernatant absorbance at […] (OD405). The absorbance was measured using a Tecan M1000 Pro monochromator plate reader. […]

As for `C=C[C@]1(C)C[C@@H](OC(=O)CNCCCNCCCCCCCCCCNCCCNCC(=O)O[C@@H]2C[C@@](C)(C=C)[C@@H](O)[C@H](C)[C@]34CCC(=O)[C@H]3[C@@]2(C)[C@H](C)CC4)[C@]2(C)[C@H](C)CC[C@]3(CCC(=O)[C@H]32)[C@@H](C)[C@@H]1O.O=C(O)C(F)(F)F.O=C(O)C(F)(F)F.O=C(O)C(F)(F)F.O=C(O)C(F)(F)F` [Compound 9e, N^1,N^1′-(Decane-1,10-diyl)bis(N^3-(2-(((3aR,4R,5R,7S,8S,9R,9aS,12R)-8-hydroxy-4,7,9,12-tetramethyl-3-oxo-7-vinyldecahydro-4,9a-propanocyclopenta [8]annulen-5-yl)oxy)-2-oxoethyl)propane-1,3-diaminium) 2,2,2-trifluoroacetate], the “Real-time bacterial growth inhibition” value in experiment [1] is recorded as “inhibited the growth”. The “ATP release relative to positive control squalamine” value in experiment [2] and in experiment [3] was 40% in each case. Further, the “Outer membrane perturbation (nitrocefin hydrolysis)” value in experiment [4] was “inactive”.
With `C=C[C@]1(C)C[C@@H](OC(=O)CSCCN(CC)CC)[C@]2(C)[C@H](C)CC[C@]3(CCC(=O)[C@H]32)[C@@H](C)[C@@H]1O` [Compound 2, Tiamulin, reference compound], the “Real-time bacterial growth inhibition” value in experiment [1] was “inhibited the growth”. In addition, the “Outer membrane perturbation (nitrocefin hydrolysis)” value in experiment [4] is given as “failing to exhibit any detectable membrane perturbation”.
